Assay results from paper PMC11979885, “Mechanistic Investigation into the Phase Separation Behavior of Soluplus in the Presence of Biorelevant Media” (Molecular Pharmaceutics, 2025).
Values after ≈ are worked out from the molar mass of the structure shown. Like-named read-outs stand apart in the source and are kept apart here.

Columns and labels:
Format in all cases: physicochemical
[1] = DSC glass forming ability / crystallization tendency classification; conditions: classification according to Baird et al.
Description: The manufactured spray-dried dispersion as well as the neat crystalline drug was investigated in triplicate using DSC to detect the presence of crystalline material and to gain information about the glass transition temperature (Tg) of the materials. For this purpose, a DSC 1 Star system instrument from Mettler-Toledo AG (Greifensee, Switzerland) was used. The instrument was calibrated for temperature and heat flow using indium, and the analysis was performed with an air flow rate of 150 mL min^–1. Samples were weighed into 40 μL aluminum pans (Mettler-Toledo AG, Greifensee, CH), sealed with pierced aluminum lids, and placed into the DSC. The analysis of the spray-dried dispersion was carried out as a heating cycle which heated the sample from RT to 190 °C at 10 K min^–1, followed by cooling down to −50 °C at −20 K min^–1 and finally reheating to 190 °C at 10 K min^–1. The analysis of the neat crystalline drug was carried out according to Baird et al.,[36] to evaluate the glass forming ability of the drug. The second heating ramp was used to measure the Tg without the influence of evaporating moisture.

[2] = Equilibrium solubility of crystalline RO6897779 in FaSSIF-V1 with and without Soluplus
Description: The solubility of RO6897779 was determined in FaSSIF-V1 and in the presence of previously outlined Soluplus concentrations dissolved in FaSSIF-V1 to determine the apparent degree of supersaturation induced during solvent shift experiments. Samples were prepared by adding an excess amount of RO6897779 (≈5 mg) to 3 mL of the excipient solutions, or neat FaSSIF-V1 medium, and were stirred at 250 rpm at 37 °C (Mixdrive 15, 2MAG, München, Germany). Samples were equilibrated for 48 h. Solid–liquid separation was conducted by centrifugation at 11,500 g for 5 min using Ultrafree centrifugal units. The supernatant was immediately diluted with a 1:1 (v/v) mixture of acetonitrile and deionized water to fall into the linear region of the calibration curve during high-performance liquid chromatography (HPLC), as described under HPLC drug quantification below.
(§1) RO6897779 was quantified using reversed-phase HPLC. An Agilent 1200 series HPLC system (Agilent Technologies Inc., US) equipped with an Agilent Eclipse Plus C18 column (5 μm, 4.6 mm × 150 mm) was used for sample separation. Detection and quantification of RO6897779 were performed by using a variable wavelength detector set to 214 nm. The mobile phase consisted of (A) HPLC-grade deionized water and (B) and acetonitrile both containing 0.1% [v/v] formic acid. […] Data analysis was conducted using Agilent’s OpenLab CDS software Version 2.6.

[3] = Solvent shift supersaturation kinetics of RO6897779 in Soluplus solutions in FaSSIF-V1; conditions: for apparent degree of supersaturation (aDS) induced: nominal 1 mg mL^–1 drug, FaSSIF-V1, 37 °C
Description: Solvent shift experiments were conducted in the Pion microDISS Profiler to assess the supersaturation kinetics of RO6897779 in the presence of Soluplus dissolved in FaSSIF-V1. […] Supersaturation kinetics were assessed at D/P ratios of 10, 20, 30, and 40% corresponding to the polymer concentrations outlined previously. The polymer was dissolved in FaSSIF-V1 at RT and subsequently heated to 37 °C. A concentrated DMSO stock solution was prepared at a concentration of 50 mg mL^–1 RO6897779. From this stock solution, an aliquot of 400 μL was spiked into 19.6 mL of preheated solvent shift medium, so that a nominal concentration of 1 mg mL^–1 RO6897779 was obtained without exceeding DMSO concentrations of 2% [v/v], while assuming a negligible residual solvent influence on solubility.[40] The solutions were stirred at 250 rpm and the temperature was maintained at 37 °C and continuously monitored. At time points of 5, 15, 30, 60, 120, 180, and 240 min, 2 × 200 μL aliquots were withdrawn. […] Subsequently, the supernatant of the media was diluted appropriately with an acetonitrile–water mixture. An intermission of 30 min was introduced as a change in Soluplus phase behavior was expected once the sample reached RT. It was assumed that this intermission would lead to a difference in the sampled concentration of RO6897779.
as §1

crystallization tendency [1]: class III
solubility at 48 h ([2]; FaSSIF-V1, 37 °C, fassif, thermodynamic from solid, Form I, pH = 6.5 ± 0, read-out: solubility in FaSSIF-V1): 22.9 µg/mL (≈ 48.2 µM)
solubility at 48 h ([2]; FaSSIF-V1 with Soluplus 1.50 mg mL^–1, aqueous with cosolvent or surfactant or cyclodextrin, thermodynamic from solid, FaSSIF-V1, Soluplus 1.50 mg mL^–1 (D/P 40%), 48 h, 37 °C, read-out: solubility): 69 µg/mL (≈ 145 µM)
solubility at 48 h ([2]; FaSSIF-V1 with Soluplus 2.33 mg mL^–1, aqueous with cosolvent or surfactant or cyclodextrin, thermodynamic from solid, FaSSIF-V1, Soluplus 2.33 mg mL^–1 (D/P 30%), 48 h, 37 °C, read-out: solubility): 96.2 µg/mL (≈ 202 µM)
solubility at 48 h ([2]; FaSSIF-V1 with Soluplus 4.00 mg mL^–1, aqueous with cosolvent or surfactant or cyclodextrin, thermodynamic from solid, FaSSIF-V1, Soluplus 4.00 mg mL^–1 (D/P 20%), 48 h, 37 °C, read-out: solubility): 130 µg/mL (≈ 274 µM)
solubility at 48 h ([2]; FaSSIF-V1 with Soluplus 9.00 mg mL^–1, aqueous with cosolvent or surfactant or cyclodextrin, thermodynamic from solid, FaSSIF-V1, Soluplus 9.00 mg mL^–1 (D/P 10%), 48 h, 37 °C, read-out: solubility): 215 µg/mL (≈ 452 µM)
solubility at 48 h ([2]; pH 6.5, thermodynamic from solid, neat FaSSIF-V1, Soluplus 0.00 mg mL^–1 (D/P 100%), 48 h, 37 °C, read-out: solubility): 22.9 µg/mL (≈ 48.2 µM)
apparent degree of supersaturation (aDS) induced ([3]; D/P 10%): 4.65
sampled drug concentration in solvent shift experiment ([3]; D/P 20%, FaSSIF-V1, after immediate centrifugation and after cooling to RT): 150–170 μg mL^–1
apparent degree of supersaturation (aDS) induced ([3]; D/P 20%): 7.7
apparent degree of supersaturation (aDS) induced ([3]; D/P 30%): 10.4
apparent degree of supersaturation (aDS) induced ([3]; D/P 40%): 14.5
Compound: O=C(OCc1ccc(OC(F)(F)F)cc1)N1C[C@@H]2CN(C(=O)c3ccc4[nH]nnc4c3)C[C@H]2C1 [RO6897779]
